Reference: patent US7009036B2, “Peptide inhibiting platelet derived growth factor (PDGF-BB) and fibroblast growth factor (bFGF) activity” (Provincia Italiana Della Congregazione Dei Figli …, priority 2001, dated 2006)
Ends that are not written are not given here.

What was measured:
[1] = test system: primary rat aorta smooth muscle cells (RASMC); experiment: Proliferation assay, RASMC; type: cell-based; details: 0.1% BSA alone, no growth factor; any time
Description: (§1) This test was carried out on Primary rat aorta smooth muscle cells (RASMC) obtained from six-month old male Wistar rats following a well known technique (Sterpetti, A. V. et al., 1992, J. Vasc. Surg., 6, 16–20); primary bovine aortic endothelial cells (BAEC) were obtained according to previously described protocols (D'Arcangelo, D. et al., 2000, Circ.Res., 86, 312–318).
(§2) Proliferation assay was carried out on primary rat aorta SMC and on primary bovine aortic endothelial cells (BAEC). Cells were plated in six-well plates (1×10^5 cells/plate) and grown for 24 hours in Dulbecco Modified eagle's medium (DMEM) supplemented with 10% FBS, at 37° C. in 5% CO2. Then, the medium was replaced with DMEM medium containing 0.1% BSA for 24 hours. Subsequently, the medium was replaced with fresh medium containing either 0.1% BSA alone or 0.1% BSA with growth factors at 10 ng/ml final concentration or fetal calf serum (FCS) al 10%, in the absence or in the presence of PEP1 or control peptide. Each assay was carried out for mounting period of time up to a maximum time of three days and the cell were harvested and counted with hemacytometer.

[2] = test system: primary bovine aortic endothelial cells (BAEC); experiment: Proliferation assay, BAEC; type: cell-based; details: 0.1% BSA alone, no growth factor; any time
Description: as §1, §2

**Q.** “DPHIKLQLQAE [PEP1, Asp-Pro-His-Ile-Lys-Leu-Gln-Leu-Gln-Ala-Glu]” was tested. Which “effect on spontaneous proliferation (toxicity per se), RASMC” value [1] did it give?
**A.** The value was “not significantly affected”.

**Q.** What about the “effect on spontaneous proliferation (toxicity per se), BAEC” value [2] of the same sequence?
**A.** Its value is “not significantly affected”.
